This is an account of results in patent US10183011B2, “Anti-depression compounds” (Board of Regents of the University of Texas System, priority 2009, dated 2019).

In one series the test system is aged Fisher 344 rats. Kind of series: Aged rats: hippocampal neurogenesis, Morris water maze, apoptosis, body weight. Format: in vivo, rat (Fisher 344). As for the experimental part: FIG. 20A, FIG. 20B, FIG. 20C, FIG. 20D and FIG. 20E: Effect of Example 45 Compound in aged rats. (FIG. 20A) Example 45 Compound (20 mg/kg/d, i.p.) and BrdU (50 mg/kg, i.p.) were administered daily for 7 days to 12-18 month old Fisher 344 rats (n=4 in each group). P7C3 promoted neural precursor cell proliferation by roughly 5 fold compared to vehicle. (*p<0.001, Students t test). […] These micrographs were taken at the same magnification. Scale bar=[…]. Data are expressed as mean+/−SEM. […] Data are expressed as mean+/−SEM. […] Data are expressed as mean+/−SEM.
Many more of the BrdU-labeled cells were noted to have migrated into the granular layer in Example 45 Compound-treated rats in comparison to vehicle treated animals, consistent with their functional incorporation into the dentate gyrus as properly wired neurons. The scale bar represents […]. […] The scale bar represents […]. […] In all graphs data are expressed as mean±SEM.
It was first evaluated whether Example 45 Compound would enhance hippocampal neurogenesis in aged rats as it does in adult mice. Rats were injected with a daily, IP dose of either […] of Example 45 Compound or vehicle, coinjected with a daily dose of BrdU, and then sacrificed after 7 days for immunohistochemistry. […] Having observed proneurogenic efficacy of Example 45 Compound in this short term assay, it was then tested whether prolonged administration of Example 45 Compound might ameliorate age-related decline in cognition by subjecting 18-month-old rats to daily administration of either […] of Example 45 Compound or vehicle only for 2 months. Animals of both groups were further subjected to weekly IP administration of BrdU (50 mg/kg) for later immunohistochemical measurements of hippocampal neurogenesis. As a control, both Example 45 Compound- and vehicle-treated groups were confirmed to display equal ability to physically participate in the task, and learn the task, as shown by decreased latency times to find the hidden platform over the 5 day training period, both before and after 2 months of treatment (FIG. 20B). Moreover, neither swim speed (FIG. 20C) nor locomotor activity (FIG. 20D) varied with age or treatment paradigm.
After 2 months of compound or vehicle administration, cognitive ability was assessed blind to treatment group by removing the goal platform. Animals of the Example 45 Compound-treated group retained a statistically significant improvement in ability to navigate to the region of the missing platform, as evidenced by performance in the probe test.
After behavioral testing, animals were sacrificed for immunohistochemical detection of BrdU and CCSP3. […] Next it was tested whether Example 45 Compound-mediated preservation of body weight in aged rats operates via central or peripheral modes of action.

The next series deals with G93A-SOD1 mutant mice. Nature of the series: Walking gait (pawprint analysis) in G93A-SOD1 mice, treatment from day 80. Format: in vivo, mouse. The settings on record: 20 mg/kg/day from day 80. As for the experimental part:
FIG. 36A and FIG. 36B. P7C3A20 preserves walking gait when administered at the time of disease onset to G93A-SOD1 mutant mice. […] Front and back stride were collected as a straight line from back paw print to the following paw print. Back-front distance was collected as a straight line from back paw print to the corresponding front paw print. 20 measurements (10 on each side) for each parameter were measured per mouse, and 20 mice per group were evaluated at 90 and 118 day time points. All measurements were conducted blind to treatment group, and the student's t test was used for statistical comparison of a treatment group to its matched vehicle group. FIG. 36B—At 90 days, there were no differences between any groups in back stride, front stride and back-front distance. […] Back stride and front stride were preserved to near-normal levels in P7C3A20 treated mice on day 118. By day 132, P7C3 and Dimebon treated mice were too sick to participate in the task. At this time point, P7C3A20 treated mice continued to show normalized back stride and front stride levels.
Analysis of walking gait offers a second means of assessing motor limb strength and coordination in rodent models of ALS. We conducted this analysis in the same mice used for the accelerating rotarod task, at three time points: 90, 118 and 132 days. Briefly, the front paws of each test mouse were dipped in orange tempera paint, and the back paws in blue tempera paint. […] Key parameters of the pawprints were then manually measured, as described in Methods. […]
Five measurements were taken: front and back stride, front and back width, and front to back distance, as described in Current Protocols for Neuroscience. […] Width from paw print was measured by drawing a line at a 90 degree angle from the line connecting the stride previous and the paw being analyzed. The distance was recorded as length of line from paw to the stride line opposite the paw print. […]
Pawprints were recorded at 90, 118 and 132 days of age. […]

On to `OC(CNc1ccccc1)Cn1c2ccc(Br)cc2c2cc(Br)ccc21` (centres unmarked) [Example P7C3], for which, in the series with aged Fisher 344 rats (daily i.p. for 7 days, 12-18 month old Fisher 344 rats), the “neural precursor cell proliferation (BrdU) compared to vehicle” value is recorded as “roughly 5 fold”. Also, in the series on G93A-SOD1 mutant mice, the “walking gait (back stride, front stride, back-front distance)” value (shortened to “walking gait”) is given as “none of these parameters in the walking gait analysis at 20 mg/kg/day were significantly improved”.

Take `Cc1ccc2c(c1)c1c(n2CCc2ccc(C)nc2)CCN(C)C1` [Dimebon, 2,3,4,5-Tetrahydro-2,8-dimethyl-5-(2-(6-methyl-3-pyridyl)ethyl)-1H-pyrido(4,3-b)indole, reference compound]: in the series with G93A-SOD1 mutant mice, the “walking gait” value was “none of these parameters in the walking gait analysis at 20 mg/kg/day were significantly improved”.

Regarding `OC(CNc1ccccc1)Cn1c2ccc(Br)cc2c2cc(Br)ccc21` (centres unmarked) [Example 45 Compound], in the series with aged Fisher 344 rats (after 2 months of treatment), the “apoptotic cells in the dentate gyrus” value was “statistically significant reduction in the number of CCSP3-positive cells” and the “level of BrdU-positive neurons in the dentate gyrus versus vehicle” value is recorded as 3 fold. For the same compound, in the series on aged Fisher 344 rats (aged rats), the “postfasting blood glucose levels” value is reported as “had no effect on postfasting blood glucose levels”. Further, the “body weight with aging” value with aged Fisher 344 rats (aged rats, 2 months of treatment) was “helped rats maintain stable body weight with aging”. The “increase in BrdU labeling in the dentate gyrus relative to vehicle” value in the series with aged Fisher 344 rats (daily IP for 7 days, aged rats) turned out to be 500%. For the same compound, the “crossings of the location previously containing the platform” value with aged Fisher 344 rats (probe test after 2 months of treatment) was “significantly more often than vehicle-treated rats”. Besides, in the series on aged Fisher 344 rats (probe test after 2 months of treatment, vehicle 28.1%±2.6%), the “percentage of time in the general goal area (quadrant previously containing the platform)” value was 35.5%±2.2%.

Consider `COc1cccc(NCC(F)Cn2c3ccc(Br)cc3c3cc(Br)ccc32)c1` (centres unmarked) [Example P7C3A20, N-(3-(3,6-dibromo-9H-carbazol-9-yl)-2-fluoropropyl)-3-methoxyaniline], for which, in the series on G93A-SOD1 mutant mice, the “walking gait” value was “helps preserve walking gait”.
